Experimental data reported in patent US9777014B2, “Tetrahydro-2H-pyrano[3,2-C]isochromene-6-ones and analogs for the treatment of inflammatory disorders” (Council of Scientific & Industrial Research, priority 2013, dated 2017).
Entries after “also recorded” stand apart in the source; their conditions may differ.

How the values were obtained:
T-cell = test: Effect on T-cell proliferation (Con-A stimulated spleen cells, MTT); assay type: cell-based; conditions: for inhibition of T-cell proliferation (in words): 0.1 μM-100 μM tested; for IC50: T-cell, Con-A stimulated spleen cells, 72 hrs, MTT
Procedure: Compounds provided in present invention were evaluated for their effect on T-cell proliferation. The protocol used for this bioassay is as follows: A single spleen cell suspension was prepared under sterile conditions and suspended in complete medium RPMI 1640 containing 10% Fetal calf serum (FCS). Spleenocytes were seeded into 4-5 wells of a 96-well flat bottom microtitre plate (Nunc) at (2×10^6 cells/ml). Thereafter, Concanavalin (Con-A) in the final concentration of 2.5 μg/well was added to stimulate T-cell, or LPS in the final concentration of 1 μg/ml was added to stimulate B-cell in the respective wells. Variable concentrations of compounds of the present invention (0.1 μM-100 μM) were added. Thereafter, the plates were incubated at 37° C. in 95% humidity at 5% CO2 in a CO2 incubator for 72 hrs. After 72 hours, 50 μl of MTT solution (5 mg/ml) was added to each well and the plates were incubated for 4 h. Thereafter, plates were centrifuged (400×g, 5 min.) and the untransformed MTT was removed. 200 μl of DMSO (192 μl with 8 μl 1N HCl) was added to each well, and the absorbance was determined in an ELISA reader at 570 nm after 15 min (Life Sci. 2007, 80, 1525-1538).

TNF-α [1] = test: TNF-α production in Con A/LPS stimulated splenocytes (ELISA); assay type: cell-based; conditions: for IC50: Splenocyte, splenocytes, Con A or LPS, 72 h, ELISA; for inhibition of TNF-α production (in words): at low micromolar to nanomolar concentrations
Procedure: (§1) Splenocytes were seeded into three to four wells of a 96-well flat-bottom microtiter plate (Nunc) at 2×10^6 cells/ml. Cells were incubated with different concentrations of compounds (0.1 μM-100 μM) along with Con A (2.5 μg/well) or LPS (1 μg/ml) for 72 h at 37° C. with 5% CO2 in CO2 incubator. The culture supernatants were harvested and the measurement of cytokines (TNF-α and IL-6) in the culture supernatants was carried out using commercial kits as per manufacturer's instructions by using ELISA kits (R&D, USA) (Life Sci. 2007, 80, 1525-1538; J. Immunol. Methods 1983, 65, 55-63).

IL-6 [2] = test: IL-6 production in Con A/LPS stimulated splenocytes (ELISA); assay type: cell-based; conditions: for IC50: Splenocyte, splenocytes, Con A or LPS, 72 h, ELISA; for inhibition of IL-6 production (in words): at low micromolar to nanomolar concentrations
Procedure: as §1

TNF-α [3] = test: TNF-α in cell supernatant of macrophages, ex vivo LPS-induced model; set-up: species or system Balb/c mice
Source text: (§2) Macrophages are the main source of cytokines in inflammation. Lipopolysaccharides LPS may stimulate macrophages to produce large quantities of proinflammatory cytokines that promote inflammation. In this study, we investigated the effect of compounds 1-3 on the expression and secretion of cytokines (TNF-α/IL-6) in vivo in cell supernatant and serum. For this study, male Balb/c mice (5-6 weeks of age) were maintained under pathogen-free conditions in an animal housing unit in a temperature-controlled (23±2° C.) and light-controlled (12 h light/dark cycle) room. Animals were provided standard rodent chow and water ad libitum. Female Balb/C mice (8-10 weeks) were obtained from animal house, 3 or 4 per cage with a 12 h light/dark cycle, provided standard water ad libitum, and acclimated to their environment at least a week before the start of experiments. One hour prior to the start of each experiment, feed and water were removed from the cages. Mice were treated with 10 mg/kg and 100 mg/kg of compounds 1-3 orally over a period of 5 days. LPS 10 μg/ml was injected and blood as well macrophages were collected. The dose was selected based on in vitro result.
(§3) Ex vivo determination of TNF-α, IL-6 & IL-1β in cell supernatant: Blood for serum cytokines production was collected from each treated and untreated animals before the collection of macrophages from peritoneal cavity. Cells were seeded in 96-well plates at 5×10^5 cells mL^−1. Cells were then stimulated with 1 μg mL^−1 LPS for 4 hrs. The cell supernatant was stored at −80° C. The production of TNF-α, IL-6, IL-1β and NO in macrophages cell supernatants of LPS-challenged mice were measured by commercial ELISA kits (B. D. Pharmingenin; R&D systems, Inc., Minneapolis, Minn., USA) and cytokine concentration was determined (J. Am. College Nutr. 2004, 23, 71-78).

IL-6 [4] = test: IL-6 in cell supernatant of macrophages, ex vivo LPS-induced model; set-up: species or system Balb/c mice
Source text: as §2, §3

TNF-α [5] = test: TNF-α in serum, in-vivo LPS-induced model; set-up: species or system Balb/c mice; conditions: for TNF-α in serum: in-vivo LPS-induced model; for activity against TNF-α in in-vivo LPS model compared with bergenin (1): Table 3, serum
Source text: as §2
(§4) Measurement of in vivo serum levels of TNF-α and IL-6: The mice were divided into 4 groups: no treatment group, injected with phosphate buffered saline (PBS); LPS only; LPS+Dexamethasone (0.05 μg/ml); or LPS+compound 1 at 10 and 100 μM doses (n=6 for each group). Groups were pretreated orally with 200 μl of PBS, dexamethasone or compounds 1, 2, 3 for 45 min. Lipopolysaccharide (100 nM) was then administered (200 μL) i.p for treatment groups, and RPMI was administered i.p for the negative control group.
(§5) Ex vivo TNF-α and IL-6 determination by ELISA: Blood was allowed to clot overnight at 4° C. Serum was analyzed for IL-6, TNF-α, and IL-1β by ELISA. IL-6 analysis was performed using purified and biotin-conjugated rat anti-mouse IL-6 antibodies from PharMingen (San Diego, Calif.) as described previously. Streptavidin—peroxidase (Sigma) and 3,3′,5,5′-tetramethylbenzidine (TMB, Fluka, Ronkonkoma, N.Y.) were used for detection. Absorbance was read at 450 nm using a Vmax™ Kinetic Microplate Reader (Molecular Devices, Menlo Park, Calif.). For TNF-α analysis the OptEIA Set: Mouse TNF-α (Mono/Poly) kit was employed (PharMingen) (J. Immunol. Methods 1983, 65, 55-63).

IL-6 [6] = test: IL-6 in serum, in-vivo LPS-induced model; set-up: species or system Balb/c mice
Source text: as §2, §4, §5

nitric oxide (NO) = test: Nitric oxide (NO) in serum, in-vivo LPS-induced model (Griess assay); set-up: species or system Balb/c mice
Source text: as §2, §4
NO determination by Griess assay: NO production was indirectly assessed by measuring the nitrite level in the cultured media and serum determined by a colorimetric method based on the griess reaction. The cells were incubated with cinnamic aldehyde, cinnamic alcohol, cinnamic acid, coumarin (0, 6.25, 12.5, 25, and 50 μM) in presence of LPS (100 ng/mL) at 37° C. for 24 h. Then, cells were dispensed into 96-well plates, and […] of each supernatant was mixed with the same volume of griess reagent (1% sulfanilamide, 0.1% naphthyl ethylenediamine dihydrochloride and 5% phosphoric acid) and incubated at room temperature for 10 min., the absorbance was measured at 540 nm with a Micro-Reader (Molecular Devices, Orleans Drive, Sunnyvale, Calif.). Serum samples were diluted four times with distilled water and deproteinized by adding 1/20 volume of zinc sulphate (300 g/L) to final concentration of 15 g/L. After centrifugation at 10,000×g for 5 min at room temperature, 100 μL supernatant was applied to a microtitre plate well, followed by 100 μL of Griess reagent. After 10 min of color development at room temperature, the absorbance was measured at 540 nm with a Micro-Reader. By using sodium nitrite to generatea standard curve, the concentration of nitrite was measured by absorbance at 540 nm (J. Ethnopharmacology, 2011, 135, 545-552).

IL-4 = IL-4 production in stimulated splenocytes; assay type: cell-based; conditions: at low micromolar to nanomolar concentrations
IL-1β = IL-1β production in stimulated splenocytes; assay type: cell-based; conditions: at low micromolar to nanomolar concentrations

Row | Structure (SMILES) | inhibition of T-cell proliferation (in words) (T-cell) | IC50 (T-cell) [nM] | IC50 (TNF-α [1]) [nM] | inhibition of TNF-α production (in words) (TNF-α [1]) | IC50 (IL-6 [2]) [nM] | inhibition of IL-6 production (in words) (IL-6 [2]) | TNF-α in cell supernatant of macrophages (TNF-α [3]; Dose 10 (μM as printed)) | TNF-α in cell supernatant of macrophages (TNF-α [3]; Dose 100 (μM as printed)) [pg/mL] | IL-6 in cell supernatant of macrophages (IL-6 [4]; Dose 10 (μM as printed)) [ng/mL] | IL-6 in cell supernatant of macrophages (IL-6 [4]; Dose 100 (μM as printed)) [ng/mL] | TNF-α in serum (TNF-α [5]; Dose 10 (μM as printed)) [pg/mL] | TNF-α in serum (TNF-α [5]; Dose 100 (μM as printed)) [pg/mL] | activity against TNF-α in in-vivo LPS model compared with bergenin (1) (TNF-α [5]) | IL-6 in serum (IL-6 [6]; Dose 10 (μM as printed)) [ng/mL] | IL-6 in serum (IL-6 [6]; Dose 100 (μM as printed)) [ng/mL] | NO in serum (nitric oxide (NO); Dose 10 (μM as printed)) [µM] | NO in serum (nitric oxide (NO); Dose 100 (μM as printed)) [µM] | inhibition of IL-4 production (in words) (IL-4) | inhibition of IL-1β production (in words) (IL-1β) | other results
1 | CCN(CC)Cc1c(O)c(OC)c(O)c2c1C(=O)OC1C2OC(CO)C(O)C1O (centres unmarked) [Compound 2, 7-((Diethylamino)methyl)-2,3,4,4a-tetrahydro-3,4,8,10-tetrahydroxy-2-(hydroxymethyl)-9-methoxypyrano[3,2-c]isochromen-6(10bH)-one] | most potent | < 100 | < 100 | most potent | < 100 | most potent | 102 ± 12^ pg/ml | 89 ± 6.4 | 41.4 ± 8.9 | 17.3 ± 3.0 | 585 ± 192 | 388 ± 115 | better activity than bergenin (1) | 102 ± 40 | 275 ± 65 | 5.0 ± 0.80 | 3.0 ± 0.73 | most potent | most potent | 
2 | COc1c(O)c(CN2CCN(C)CC2)c2c(c1O)C1OC(CO)C(O)C(O)C1OC2=O (centres unmarked) [Compound 3, 2,3,4,4a-Tetrahydro-3,4,8,10-tetrahydroxy-2-(hydroxymethyl)-9-methoxy-7-((4-methylpiperazin-1-yl)methyl)pyrano[3,2-c]isochromen-6(10bH)-one] | most potent | 6100 | < 100 | most potent | < 100 | most potent | 78 ± 4.9 pg/mL | 84 ± 6.7 | 12.1 ± 2.81 | 21.1 ± 3.2 | 672 ± 221 | 398 ± 62 | better activity than bergenin (1) | 282 ± 98 | 58 ± 12 | 2.87 ± 0.73 | 1.24 ± 0.25 | most potent | most potent | 
3 | COc1c(O)cc2c(c1O)[C@@H]1O[C@H](CO)[C@@H](O)[C@H](O)[C@H]1OC2=O [Compound 1, Bergenin, reference compound] |  | 100 | 630 |  | < 100 |  | 89 ± 6.1 pg/mL | 78 ± 4.9 | 24.6 ± 6.9 | 53.5 ± 7.5 | 667 ± 208 | 509 ± 185 |  | 282 ± 98 | 55 ± 12 | 2.62 ± 0.62 | 3.29 ± 0.88 |  |  | inhibition of T-cell proliferation (in words) (T-cell; listed as Bergenin (1)): showed inhibition; also recorded: most potent; inhibition of TNF-α production (in words) (TNF-α [1]; listed as Bergenin (1)): showed inhibition; also recorded: most potent; inhibition of IL-6 production (in words) (IL-6 [2]; listed as Bergenin (1)): showed inhibition; also recorded: most potent; inhibition of IL-4 production (in words) (IL-4; listed as Bergenin (1)): showed inhibition; also recorded: most potent; inhibition of IL-1β production (in words) (IL-1β; listed as Bergenin (1)): showed inhibition; also recorded: most potent
